# Experimental data as given in patent US9926302B2, “Heteroaryl substituted heterocyclyl sulfones” (priority 2014, dated 2018).
# Biological target: T1, Human CaV2.2 channels (Homo sapiens, UniProt Q00975)
# T1 construct: expressed in transfected cells
# Experiment: Fluorescence assay for CaV2.2 channels using potassium depolarization to induce channel opening (FLIPR, Fluo 4)
# Type: cell-based
# Details: 3 μM test compound; alternative assay buffer 30 mM KCl (inactivated channel state); HEK293 cells stably expressing human CaV2.2
# Text: In the process, the Ca^2+ influx is quantified in the FLIPR assay with the aid of a Ca^2+-sensitive dye (type Fluo-4, Molecular Probes Europe BV, Leiden, the Netherlands) in a fluorescent imaging plate reader (FLIPR 3, Molecular Devices, Sunnyvale, USA), as described hereinafter.
# 2.1 Fluorescence Assay for CaV2.2 Channels Using Potassium Depolarization to Induce Channel Opening
# Human CaV2.2 channels were stably expressed in HEK293 cells together with alpha2-delta and beta subunits of voltage gated calcium channels. In addition, an inwardly rectifying potassium channel (Kir2.3) was stably expressed in these cells to augment control of the cell membrane potential by the concentration of extracellular potassium ions. Raise of the extracellular potassium concentration leads to depolarization of the membrane potential and thus regulates the voltage dependent state of CaV2.2 channels. For preparation, cells were seeded in black poly-D-lysine coated 96-well plates (Becton Dickinson, Biocoat 4640) in 100 μL medium [500 mL DMEM/F-12 plus Glutamax (Invitrogen 31331-093) plus 5.5 mL MEM NEAA 100× (Invitrogen 11140-035) plus 50 mL FBS decomplemented (Invitrogen 10270-106) plus 200 μg/mL Geneticin (Invitrogen 10131-027) plus 50 μg/mL Hygromycin B (Invitrogen 10687-010) plus 2 μg/mL Blasticidin (anti-bl5b Invivo-Gen) plus 0.2 μg/mL Puromycin (A 11138-03)] at a cell density of 30.000 cells per well. Plates were incubated at 37° C. (5% CO2) for 20 to 23 h. On the day of experiment medium was discarded and cells were loaded with Fluo 4 by addition of 100 μL of basic assay buffer (10 mM HEPES, 1 mM KCl, 149 mM NaCl, 0.8 mM CaCl2, 1.7 mM MgCl2, 10 mM Glucose, 0.1% BSA. pH 7.4) containing 2 μM Fluo 4 (Molecular Probes; F-14201), 0.01% pluronic acid (Molecular Probes; P-6866) and 2.5 mM probenecid (Molecular Probes; P36400). Cells were incubated in the dark at 25° C. for 60 min. Then dye containing buffer was discarded and 100 μL basic (1 mM KCl) or alternative (30 mM KCl) assay buffer was added. The alternative assay buffer contained altered concentrations of KCl (30 mM) and NaCl (120 mM) and was used in order to promote the inactivated channel state. After that 25 μL of basic or alternative assay buffer with or without test compound were added and cells were incubated again in the dark at 25° C. for 15 min. Fluorescence intensity was measured on a FLIPR 3 instrument (Molecular Devices Corp., Sunnyvale, Calif.) with excitation at 480 nm and emission at 535 nm. After continuously reading fluorescence for 30 sec, 50 μL of basic assay buffer containing 210 mM KCl (NaCl omitted) were added for depolarization. Peak fluorescent signal intensity was determined and the amplitude of the peak signal, normalized to base line, was used to measure channel inhibition by test compounds.
# T1 sequence (P54289 947-1103): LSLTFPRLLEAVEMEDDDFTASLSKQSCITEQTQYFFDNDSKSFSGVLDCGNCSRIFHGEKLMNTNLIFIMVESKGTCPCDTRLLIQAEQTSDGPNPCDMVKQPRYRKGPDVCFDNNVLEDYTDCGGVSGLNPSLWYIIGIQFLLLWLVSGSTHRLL
# T1 sequence (P54289 25-946): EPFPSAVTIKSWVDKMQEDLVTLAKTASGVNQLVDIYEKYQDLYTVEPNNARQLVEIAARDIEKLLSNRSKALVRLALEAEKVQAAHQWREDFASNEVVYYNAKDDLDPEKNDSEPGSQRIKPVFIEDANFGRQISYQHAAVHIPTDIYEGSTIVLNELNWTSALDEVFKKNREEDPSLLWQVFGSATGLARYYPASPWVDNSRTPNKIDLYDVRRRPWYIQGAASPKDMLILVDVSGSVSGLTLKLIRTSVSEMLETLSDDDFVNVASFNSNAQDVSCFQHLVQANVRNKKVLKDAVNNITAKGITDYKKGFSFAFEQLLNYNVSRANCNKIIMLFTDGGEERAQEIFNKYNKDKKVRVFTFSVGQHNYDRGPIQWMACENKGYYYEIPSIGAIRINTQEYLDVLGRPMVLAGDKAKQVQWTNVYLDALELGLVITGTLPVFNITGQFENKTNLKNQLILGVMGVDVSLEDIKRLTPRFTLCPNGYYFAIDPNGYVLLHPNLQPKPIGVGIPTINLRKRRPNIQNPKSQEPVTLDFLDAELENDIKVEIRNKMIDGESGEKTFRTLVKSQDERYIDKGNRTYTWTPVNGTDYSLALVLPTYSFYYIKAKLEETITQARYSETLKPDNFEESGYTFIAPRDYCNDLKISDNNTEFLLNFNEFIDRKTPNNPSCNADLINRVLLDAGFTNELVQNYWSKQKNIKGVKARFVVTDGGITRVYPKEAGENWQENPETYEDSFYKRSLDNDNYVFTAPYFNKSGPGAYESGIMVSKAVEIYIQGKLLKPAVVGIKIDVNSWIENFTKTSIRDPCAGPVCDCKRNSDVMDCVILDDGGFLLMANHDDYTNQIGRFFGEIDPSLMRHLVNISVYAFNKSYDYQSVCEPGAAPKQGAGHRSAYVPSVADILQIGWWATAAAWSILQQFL
# T1 sequence (P54284 whole entry, further chain): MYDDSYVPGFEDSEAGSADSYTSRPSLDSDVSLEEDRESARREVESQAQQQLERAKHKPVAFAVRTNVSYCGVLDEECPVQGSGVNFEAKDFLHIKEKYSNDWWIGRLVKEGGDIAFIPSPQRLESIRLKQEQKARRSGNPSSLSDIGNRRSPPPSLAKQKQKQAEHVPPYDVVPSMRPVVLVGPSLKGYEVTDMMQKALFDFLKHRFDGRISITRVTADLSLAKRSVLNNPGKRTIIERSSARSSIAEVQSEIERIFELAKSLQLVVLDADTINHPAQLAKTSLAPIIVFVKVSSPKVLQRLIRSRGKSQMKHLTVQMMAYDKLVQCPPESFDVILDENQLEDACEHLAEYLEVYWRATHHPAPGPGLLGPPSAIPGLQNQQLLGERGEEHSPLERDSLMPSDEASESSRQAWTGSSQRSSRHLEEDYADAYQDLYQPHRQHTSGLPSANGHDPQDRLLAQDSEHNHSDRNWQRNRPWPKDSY
# T1 sequence (Q00975 whole entry): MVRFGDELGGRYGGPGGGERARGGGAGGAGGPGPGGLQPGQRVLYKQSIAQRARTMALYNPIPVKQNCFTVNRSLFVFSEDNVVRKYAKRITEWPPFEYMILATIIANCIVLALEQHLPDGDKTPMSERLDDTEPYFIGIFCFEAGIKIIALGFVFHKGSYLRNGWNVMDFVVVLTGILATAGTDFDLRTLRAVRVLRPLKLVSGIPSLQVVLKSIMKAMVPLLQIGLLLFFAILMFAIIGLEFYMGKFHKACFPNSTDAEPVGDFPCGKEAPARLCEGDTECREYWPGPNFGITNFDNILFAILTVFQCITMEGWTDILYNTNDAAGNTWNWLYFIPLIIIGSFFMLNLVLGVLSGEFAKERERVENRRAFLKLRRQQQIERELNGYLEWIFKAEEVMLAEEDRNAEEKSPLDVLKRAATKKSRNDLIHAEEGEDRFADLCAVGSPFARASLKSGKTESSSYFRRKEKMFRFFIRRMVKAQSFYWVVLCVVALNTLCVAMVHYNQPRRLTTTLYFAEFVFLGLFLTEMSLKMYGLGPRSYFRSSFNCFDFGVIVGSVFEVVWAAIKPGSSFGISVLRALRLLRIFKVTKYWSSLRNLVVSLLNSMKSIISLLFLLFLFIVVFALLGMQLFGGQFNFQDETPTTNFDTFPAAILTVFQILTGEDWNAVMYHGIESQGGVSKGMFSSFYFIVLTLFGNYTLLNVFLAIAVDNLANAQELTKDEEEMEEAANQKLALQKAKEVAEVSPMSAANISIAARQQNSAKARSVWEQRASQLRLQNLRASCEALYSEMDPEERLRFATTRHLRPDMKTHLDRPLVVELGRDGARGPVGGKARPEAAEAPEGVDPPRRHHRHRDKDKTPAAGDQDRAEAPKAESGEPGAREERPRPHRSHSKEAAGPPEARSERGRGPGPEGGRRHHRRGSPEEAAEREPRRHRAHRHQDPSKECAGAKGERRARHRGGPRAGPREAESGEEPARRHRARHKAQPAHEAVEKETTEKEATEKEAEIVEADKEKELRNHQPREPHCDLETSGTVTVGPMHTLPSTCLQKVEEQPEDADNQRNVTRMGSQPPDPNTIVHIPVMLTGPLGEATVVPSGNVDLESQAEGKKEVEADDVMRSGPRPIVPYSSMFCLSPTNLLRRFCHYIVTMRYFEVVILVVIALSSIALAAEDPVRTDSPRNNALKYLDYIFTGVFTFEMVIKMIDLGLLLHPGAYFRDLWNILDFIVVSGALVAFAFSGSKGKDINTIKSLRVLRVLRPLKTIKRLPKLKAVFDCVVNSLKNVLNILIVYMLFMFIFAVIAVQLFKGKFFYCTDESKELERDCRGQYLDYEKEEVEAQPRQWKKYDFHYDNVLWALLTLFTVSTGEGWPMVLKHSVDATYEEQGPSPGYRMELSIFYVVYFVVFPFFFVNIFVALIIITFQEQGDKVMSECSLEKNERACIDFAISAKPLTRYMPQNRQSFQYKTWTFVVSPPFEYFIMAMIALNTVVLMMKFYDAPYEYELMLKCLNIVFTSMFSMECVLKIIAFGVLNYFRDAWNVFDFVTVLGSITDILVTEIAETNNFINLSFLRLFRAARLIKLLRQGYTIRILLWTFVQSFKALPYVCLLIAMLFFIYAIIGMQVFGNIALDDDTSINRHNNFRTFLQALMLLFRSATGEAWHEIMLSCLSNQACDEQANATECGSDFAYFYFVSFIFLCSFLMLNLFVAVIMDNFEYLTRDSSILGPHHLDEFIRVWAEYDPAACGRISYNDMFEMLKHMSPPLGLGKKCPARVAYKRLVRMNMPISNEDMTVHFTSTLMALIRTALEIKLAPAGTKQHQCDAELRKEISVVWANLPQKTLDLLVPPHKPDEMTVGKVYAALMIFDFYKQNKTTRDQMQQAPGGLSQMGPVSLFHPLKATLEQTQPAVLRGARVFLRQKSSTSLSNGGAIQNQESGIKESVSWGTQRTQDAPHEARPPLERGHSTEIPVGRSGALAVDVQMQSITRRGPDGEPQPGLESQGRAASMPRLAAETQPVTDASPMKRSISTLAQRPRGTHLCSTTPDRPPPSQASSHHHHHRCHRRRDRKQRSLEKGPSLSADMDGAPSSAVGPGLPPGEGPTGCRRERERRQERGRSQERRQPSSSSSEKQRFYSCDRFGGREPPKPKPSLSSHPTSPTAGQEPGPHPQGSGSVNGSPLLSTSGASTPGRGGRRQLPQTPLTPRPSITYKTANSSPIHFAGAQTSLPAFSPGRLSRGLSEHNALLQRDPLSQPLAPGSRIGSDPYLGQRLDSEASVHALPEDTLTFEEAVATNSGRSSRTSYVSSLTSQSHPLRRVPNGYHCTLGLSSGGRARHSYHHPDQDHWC
row,Structure (SMILES),Activity Category: %-Inhib (CaV2.2) @3 μM @30 mM KCl
1,"Cc1ccc(OCC2CC(C)(S(=O)(=O)c3cccc(C(F)(F)F)c3)CCO2)cn1 (single isomer, unassigned) [SC-112, 2-Methyl-5-[[4-methyl-4-[[3-(trifluoromethyl)phenyl]sulfonyl]-tetrahydro-pyran-2-yl]-methoxy]-pyridine]",C (%-Inhibition >40% up to ≤75%)
2,"Cc1ccc(OCC2CC(C)(S(=O)(=O)c3cccc(C(F)(F)F)c3)CCO2)cn1 (single isomer, unassigned) [SC-113, 2-Methyl-5-[[4-methyl-4-[[3-(trifluoromethyl)phenyl]sulfonyl]-tetrahydro-pyran-2-yl]-methoxy]-pyridine]",B (%-Inhibition >75% up to ≤95%)
3,"CC1(S(=O)(=O)c2cccc(C(F)(F)F)c2)CCOC(c2cncc(C(F)(F)F)c2)C1 (single isomer, unassigned) [SC-116, 3-[4-Methyl-4-[[3-(trifluoromethyl)phenyl]sulfonyl]-tetrahydro-pyran-2-yl]-5-(trifluoromethyl)-pyridine]",A (%-Inhibition >95%)
4,"CC1(S(=O)(=O)c2cccc(C(F)(F)F)c2)CCOC(COc2ccc(C3CC3)nc2)C1 (single isomer, unassigned) [SC-117, 2-Cyclopropyl-5-[[4-methyl-4-[[3-(trifluoromethyl)phenyl]sulfonyl]-tetrahydro-pyran-2-yl]-methoxy]-pyridine]",B (%-Inhibition >75% up to ≤95%)
5,"CC1(S(=O)(=O)c2cccc(C(F)(F)F)c2)CCOC(c2nnc(C(F)(F)F)o2)C1 (single isomer, unassigned) [SC-121, 2-[4-Methyl-4-[[3-(trifluoromethyl)phenyl]sulfonyl]-tetrahydro-pyran-2-yl]-5-(trifluoromethyl)-[1,3,4]oxadiazole]",C (%-Inhibition >40% up to ≤75%)
6,"CC1(S(=O)(=O)c2cccc(C(F)(F)F)c2)CCOC(c2nnc(C(F)(F)F)o2)C1 (single isomer, unassigned) [SC-122, 2-[4-Methyl-4-[[3-(trifluoromethyl)phenyl]sulfonyl]-tetrahydro-pyran-2-yl]-5-(trifluoromethyl)-[1,3,4]oxadiazole]",B (%-Inhibition >75% up to ≤95%)
7,"CC1(S(=O)(=O)c2cccc(C(F)(F)F)c2)CCOC(c2nnc(C(F)F)o2)C1 (single isomer, unassigned) [SC-123, 2-(Difluoro-methyl)-5-[4-methyl-4-[[3-(trifluoromethyl)phenyl]sulfonyl]-tetrahydro-pyran-2-yl]-[1,3,4]oxadiazole]",B (%-Inhibition >75% up to ≤95%)
8,"CC1(S(=O)(=O)c2cccc(C(F)(F)F)c2)CCOC(c2nnc(C(F)F)o2)C1 (single isomer, unassigned) [SC-124, 2-(Difluoro-methyl)-5-[4-methyl-4-[[3-(trifluoromethyl)phenyl]sulfonyl]-tetrahydro-pyran-2-yl]-[1,3,4]oxadiazole]",C (%-Inhibition >40% up to ≤75%)
9,"CC(C)c1nnc(C2CC(C)(S(=O)(=O)c3cccc(C(F)(F)F)c3)CCO2)o1 (single isomer, unassigned) [SC-125, 2-Isopropyl-5-[4-methyl-4-[[3-(trifluoromethyl)phenyl]sulfonyl]-tetrahydro-pyran-2-yl]-[1,3,4]oxadiazole]",C (%-Inhibition >40% up to ≤75%)
10,"CC(C)c1nnc(C2CC(C)(S(=O)(=O)c3cccc(C(F)(F)F)c3)CCO2)o1 (single isomer, unassigned) [SC-126, 2-Isopropyl-5-[4-methyl-4-[[3-(trifluoromethyl)phenyl]sulfonyl]-tetrahydro-pyran-2-yl]-[1,3,4]oxadiazole]",B (%-Inhibition >75% up to ≤95%)
11,"CC1(S(=O)(=O)c2cccc(C(F)(F)F)c2)CCOC(c2nnc(C3CC3)o2)C1 (single isomer, unassigned) [SC-128, 2-Cyclopropyl-5-[4-methyl-4-[[3-(trifluoromethyl)phenyl]sulfonyl]-tetrahydro-pyran-2-yl]-[1,3,4]oxadiazole]",B (%-Inhibition >75% up to ≤95%)
12,"CC1(S(=O)(=O)c2cccc(C(F)(F)F)c2)CCOC(c2nnc(C3CC3)o2)C1 (single isomer, unassigned) [SC-129, 2-Cyclopropyl-5-[4-methyl-4-[[3-(trifluoromethyl)phenyl]sulfonyl]-tetrahydro-pyran-2-yl]-[1,3,4]oxadiazole]",C (%-Inhibition >40% up to ≤75%)

# Same assay, conditions: HEK293, 3 μM test compound; alternative assay buffer 30 mM KCl (inactivated channel state); HEK293 cells stably expressing human CaV2.2; read-out: Activity Category: %-Inhib (CaV2.2) @3 μM @30 mM KCl
row,Structure (SMILES),inhibition at 3 µM [%]
1,"Cc1cc(S(C)(=O)=O)cnc1C1CC(C)(S(=O)(=O)c2cccc(C(F)(F)F)c2)CCO1 (racemic) [SC-441, 3-Methyl-5-methylsulfonyl-2-[4-methyl-4-[[3-(trifluoromethyl)phenyl]sulfonyl]-tetrahydro-pyran-2-yl]-pyridine]",75 to 95
2,"Cc1cc(S(C)(=O)=O)cnc1C1CC(C)(S(=O)(=O)c2cccc(OC(F)(F)F)c2)CCO1 (racemic) [SC-451, 3-Methyl-5-methylsulfonyl-2-[4-methyl-4-[[3-(trifluoromethyloxy)-phenyl]sulfonyl]-tetrahydro-pyran-2-yl]-pyridine]",40 to 75
3,"CC1(S(=O)(=O)c2cccc(C(F)(F)F)c2)CCOC(c2noc(C3CC3)n2)C1 (single isomer, unassigned) [SC-110, 5-Cyclopropyl-3-[4-methyl-4-[[3-(trifluoromethyl)phenyl]sulfonyl]-tetrahydro-pyran-2-yl]-[1,2,4]oxadiazole]",75 to 95
4,"CC1(S(=O)(=O)c2cccc(C(F)(F)F)c2)CCOC(c2cncc(C(F)(F)F)c2)C1 (single isomer, unassigned) [SC-115, 3-[4-Methyl-4-[[3-(trifluoromethyl)phenyl]sulfonyl]-tetrahydro-pyran-2-yl]-5-(trifluoromethyl)-pyridine]",75 to 95
5,"CC1(S(=O)(=O)c2cccc(C(F)(F)F)c2)CCOC(COc2ccc(C3CC3)nc2)C1 (single isomer, unassigned) [SC-118, 2-Cyclopropyl-5-[[4-methyl-4-[[3-(trifluoromethyl)phenyl]sulfonyl]-tetrahydro-pyran-2-yl]-methoxy]-pyridine]",> 95
6,"CC1(S(=O)(=O)c2cccc(C(F)(F)F)c2)CCOC(c2ncc(S(C)(=O)=O)cc2F)C1 (single isomer, unassigned) [SC-119, 3-Fluoro-5-methylsulfonyl-2-[4-methyl-4-[[3-(trifluoromethyl)phenyl]sulfonyl]-tetrahydro-pyran-2-yl]-pyridine]",75 to 95
7,"CC1(S(=O)(=O)c2cccc(C(F)(F)F)c2)CCOC(c2ncc(S(C)(=O)=O)cc2Cl)C1 (single isomer, unassigned) [SC-130, 3-Chloro-5-methylsulfonyl-2-[4-methyl-4-[[3-(trifluoromethyl)phenyl]sulfonyl]-tetrahydro-pyran-2-yl]-pyridine]",75 to 95
8,"CC1(S(=O)(=O)c2cccc(C(F)(F)F)c2)CCOC(COc2cnc(C3CC3)cn2)C1 (single isomer, unassigned) [SC-132, 2-Cyclopropyl-5-[[4-methyl-4-[[3-(trifluoromethyl)phenyl]sulfonyl]-tetrahydro-pyran-2-yl]-methoxy]-pyrazine]",75 to 95
